From US9216216B2, “LprG as a chaperone of immune adjuvants” (Case Western Reserve University, priority 2009, dated 2015)
Entries after “also recorded” stand apart in the source; their conditions may differ.

B1: LprG: Mtb lipoprotein LprG (SEQ ID NO: 2), recombinant 6×His-tagged acylated form (protein, listed as Mycobacterium smegmatis)
chain: MLGMQTRRRLSAVFASLTLATALIAGCSSGSKQSGAPLPDPTSLVKQSADATKNVKSVHLVLSIQGKISGLPIKTLTGDLTTTPATAAKGNATITLGGSDIDANFVVVDGTLYATLTPNKWSDFGKASDIYDVSVLLNPDNGLGNALANFSNAKAEGRETINGQSTIRISGNVSADAVNKIMPQFNATQPVPSTVWVQETGDHQLVQANLQKSSGNSVQVTLSNWGEQVQVTKPPVSS
modifications: 6xHis tag; acylated
B2: Acylated LprG-V91W: acylated LprG with the V91W mutation of the putative glycolipid binding site (protein, UniProt P9WK45 27-236, looked up, variant V91W)
Lipoarabinomannan carrier …: CSSGSKPSGGPLPDAKPLVEEATAQTKALKSAHMVLTVNGKIPGLSLKTLSGDLTTNPTAATGNWKLTLGGSDIDADFVVFDGILYATLTPNQWSDFGPAADIYDPAQVLNPDTGLANVLANFADAKAEGRDTINGQNTIRISGKVSAQAVNQIAPPFNATQPVPATVWIQETGDHQLAQAQLDRGSGNSVQMTLSKWGEKVQVTKPPVS

Key:
[1] = tested on: bone marrow-derived macrophages; format: cell-based, mice
[2] = biological target: T1, TLR2 (Homo sapiens, UniProt O60603+Q15399); format: cell-based
T1 construct: YFP; expressed in transfected cells

[3] = biological target: T1, TLR2; format: cell-based; remark: listed apart in the source

T1 sequence (O60603 21-784, species assumed): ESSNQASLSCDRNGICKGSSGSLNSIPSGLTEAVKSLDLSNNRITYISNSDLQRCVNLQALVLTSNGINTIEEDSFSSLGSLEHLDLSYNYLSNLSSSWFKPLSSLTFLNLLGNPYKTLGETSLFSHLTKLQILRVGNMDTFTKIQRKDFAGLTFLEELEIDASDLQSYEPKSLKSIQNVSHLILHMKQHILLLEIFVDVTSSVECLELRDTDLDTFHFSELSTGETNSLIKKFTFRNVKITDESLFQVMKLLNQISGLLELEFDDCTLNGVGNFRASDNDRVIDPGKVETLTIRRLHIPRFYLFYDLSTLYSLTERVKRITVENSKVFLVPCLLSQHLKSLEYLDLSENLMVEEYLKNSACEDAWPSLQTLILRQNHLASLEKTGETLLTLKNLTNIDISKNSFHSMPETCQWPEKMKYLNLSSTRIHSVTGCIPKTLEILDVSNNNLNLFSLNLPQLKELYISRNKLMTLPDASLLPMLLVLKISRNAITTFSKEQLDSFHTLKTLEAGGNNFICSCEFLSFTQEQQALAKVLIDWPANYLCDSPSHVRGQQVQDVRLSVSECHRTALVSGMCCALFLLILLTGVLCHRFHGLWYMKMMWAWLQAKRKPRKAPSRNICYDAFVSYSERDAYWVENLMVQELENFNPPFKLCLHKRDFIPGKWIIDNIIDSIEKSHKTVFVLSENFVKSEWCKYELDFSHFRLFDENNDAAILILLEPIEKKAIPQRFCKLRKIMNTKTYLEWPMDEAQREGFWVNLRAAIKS
T1 sequence (Q15399 25-786, species assumed): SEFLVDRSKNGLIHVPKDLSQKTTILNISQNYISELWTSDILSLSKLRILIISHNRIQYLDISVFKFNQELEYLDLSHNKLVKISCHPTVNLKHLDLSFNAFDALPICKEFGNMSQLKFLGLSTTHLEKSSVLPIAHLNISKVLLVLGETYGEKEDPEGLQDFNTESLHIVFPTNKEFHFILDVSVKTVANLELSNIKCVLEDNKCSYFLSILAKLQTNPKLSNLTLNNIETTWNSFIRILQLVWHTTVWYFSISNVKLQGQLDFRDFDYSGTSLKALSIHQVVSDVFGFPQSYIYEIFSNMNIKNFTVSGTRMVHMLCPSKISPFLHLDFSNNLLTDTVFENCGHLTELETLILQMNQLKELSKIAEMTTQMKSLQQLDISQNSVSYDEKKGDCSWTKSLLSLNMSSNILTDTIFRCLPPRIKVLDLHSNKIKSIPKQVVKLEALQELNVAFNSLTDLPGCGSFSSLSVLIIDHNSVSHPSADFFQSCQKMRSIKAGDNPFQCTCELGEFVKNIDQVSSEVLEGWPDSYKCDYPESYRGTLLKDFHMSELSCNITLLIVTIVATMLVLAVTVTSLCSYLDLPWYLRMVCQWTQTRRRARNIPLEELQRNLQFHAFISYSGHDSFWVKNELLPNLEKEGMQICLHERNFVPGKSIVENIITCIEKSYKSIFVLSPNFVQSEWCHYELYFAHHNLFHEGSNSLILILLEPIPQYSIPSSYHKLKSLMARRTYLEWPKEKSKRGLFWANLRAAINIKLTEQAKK

Molecule | TLR dependence of macrophage TNFα response [1] | further results
CpG ODN 1826 | intact in knockout cell lines; also recorded: All macrophage types responded | 
FSL-1 | dependent on TLR2 and TLR6, but not TLR1 | 
B1 |  | TLR2 agonist activity (IL-8 response) [2]: dose-dependent IL-8 response; also recorded: more potent TLR2 agonist than a homologous Mtb lipoprotein, LprA
B2 |  | TLR2 agonist activity of acylated protein [3]: significantly less potent than wild-type acylated LprG
